From publication PMC12750270, “Design and Preclinical Evaluation of a ^68Ga-Labeled Macrocyclic Peptide PET Probe Targeting Transferrin Receptor 1 in Colorectal Cancer” (ACS Omega, 2025)

Legend:
LOVO cells (TfR1 low) = experiment: Cellular binding assay in LOVO cells; assay type: cell-based, human; conditions: 37 °C, 37 kBq, γ-counter, triplicate
Experimental: (§1) The percentage of added dose per 5 × 10^5 cells (%AD/5 × 10^5 cells) was as follows: at 30 min: 5.44 ± 0.12% (HT29) vs 2.63 ± 0.09% (LOVO), at 60 min: 6.36 ± 0.05% (HT29) vs 3.19 ± 0.23% (LOVO), at 120 min: 9.56 ± 0.17% (HT29) vs 4.51 ± 0.22% (LOVO).
(§2) The cell-specific binding of ^68Ga-NOTA-TR01 was evaluated in HT29 and LOVO cells. Cells were seeded in 12-well plates (5 × 10^5 cells/well) and cultured for 24 h under standard conditions (37 °C, 5% CO2). After washing with cold PBS, cells were incubated with 1 mL serum-free medium containing ^68Ga-NOTA-TR01 (37 kBq, ∼[…] corresponding to approximately 0.4 pmol of peptide). For blocking studies, parallel wells were pretreated with a 1,000-fold molar excess (3.3 nmol, 1 μg) of unlabeled TR01 peptide. Cellular binding was assessed at 0.5, 1, 2, and 4 h postincubation. Following incubation, cells were washed twice with ice-cold PBS, lysed in 1 M NaOH, and the associated radioactivity was measured using a γ-counter. Radioactivity data were corrected for decay using the ^68Ga decay constant (λ = 0.00876 min^– 1). Each condition was measured in triplicate for statistical accuracy.

in vivo = experiment: in vivo; set-up: species or system BALB/c nude mice; conditions: BALB/c nude, mouse, iv, total radioactivity
Experimental: Three mice were included at each time point; %ID/g is the percentage of injected dose per gram of tissue.
Xenograft tumor models were established by subcutaneously injecting 1 × 10^7 LOVO or HT29 cells (in 100 μL PBS) into the right flank of 5–6-week-old BALB/c nude mice (purchased from Hangzhou Ziyuan Experimental Animal Technology). Tumor growth was monitored by caliper measurement, and imaging experiments were initiated once tumors reached a volume of 100–300 mm^3. All animal procedures were conducted in accordance with the institutional guidelines of the Animal Care and Use Committee at Soochow University.
A comparative biodistribution study was conducted in BALB/c nude mice (n = 3 per group), each intravenously injected with ^68Ga-NOTA-TR01 (1.85 ± 0.49 MBq, corresponding to ∼0.15 nmol peptide, in 100 μL saline). At 30-, 60-, and 120 min postinjection, mice were euthanized for terminal blood collection and organ harvesting. For blocking studies, an additional cohort was sacrificed at 60 min following coinjection with cold NOTA-TR01 (300 μg, ∼0.1 μmol per mouse). Excised tissues were perfused three times with PBS to remove residual blood, weighed, and their radioactivity quantified using a γ-counter. The biodistribution of the radiotracer was expressed as %ID/g. Tumor-to-background ratios (TBRs) were calculated to assess tracer specificity.

[1] = assay type: physicochemical; conditions: 37 °C, 24 h, ∼3.7 MBq in 200 μL, radio-HPLC
Experimental: Collectively, these findings confirmed the suitability of ^68Ga-NOTA-TR01 for further preclinical applications.
[…] At each time point, radiochemical integrity was assessed via radio-HPLC by comparing the retention time of the incubated samples with that of a nonincubated control.

HT29 cells (TfR1 high) = experiment: Cellular binding/blocking assay in HT29 cells; assay type: cell-based, human; conditions: for cellular binding: HT29, 37 °C, 37 kBq, γ-counter, triplicate
Experimental: as §1, §2

physchem = assay type: physicochemical
Experimental: The molar activity was determined to be greater than 20 GBq/μmol. The log P was calculated as −1.709 ± 0.121 (n = 6), indicating a hydrophilic profile.
The lipophilicity of ^68Ga-NOTA-TR01 was determined via a standard octanol–water partition method. A solution of ^68Ga-NOTA-TR01 [5 μL, 0.74 MBq in phosphate-buffered saline (PBS)] was mixed with 0.5 mL n-octanol and 0.495 mL PBS. The biphasic system was vortexed for 3 min and centrifuged at 4,000 rpm for 5 min to achieve phase separation. Aliquots (100 μL) from each layer were sampled, and radioactivity was measured using a γ-counter. The log P was calculated using the formula: log P = log (cpm_octanol/cpm_PBS).

human TfR1 = target: T1, human TfR1 (Homo sapiens, UniProt P02786); experiment: Surface plasmon resonance (SPR) binding affinity assay, Biacore 8K; conditions: recombinant human TfR1-Fc immobilized, read-out: association rate constant (Ka)
T1 construct: Fc; purchased Acro Biosystems TFR-H5264
T1 sequence (P02786 whole entry): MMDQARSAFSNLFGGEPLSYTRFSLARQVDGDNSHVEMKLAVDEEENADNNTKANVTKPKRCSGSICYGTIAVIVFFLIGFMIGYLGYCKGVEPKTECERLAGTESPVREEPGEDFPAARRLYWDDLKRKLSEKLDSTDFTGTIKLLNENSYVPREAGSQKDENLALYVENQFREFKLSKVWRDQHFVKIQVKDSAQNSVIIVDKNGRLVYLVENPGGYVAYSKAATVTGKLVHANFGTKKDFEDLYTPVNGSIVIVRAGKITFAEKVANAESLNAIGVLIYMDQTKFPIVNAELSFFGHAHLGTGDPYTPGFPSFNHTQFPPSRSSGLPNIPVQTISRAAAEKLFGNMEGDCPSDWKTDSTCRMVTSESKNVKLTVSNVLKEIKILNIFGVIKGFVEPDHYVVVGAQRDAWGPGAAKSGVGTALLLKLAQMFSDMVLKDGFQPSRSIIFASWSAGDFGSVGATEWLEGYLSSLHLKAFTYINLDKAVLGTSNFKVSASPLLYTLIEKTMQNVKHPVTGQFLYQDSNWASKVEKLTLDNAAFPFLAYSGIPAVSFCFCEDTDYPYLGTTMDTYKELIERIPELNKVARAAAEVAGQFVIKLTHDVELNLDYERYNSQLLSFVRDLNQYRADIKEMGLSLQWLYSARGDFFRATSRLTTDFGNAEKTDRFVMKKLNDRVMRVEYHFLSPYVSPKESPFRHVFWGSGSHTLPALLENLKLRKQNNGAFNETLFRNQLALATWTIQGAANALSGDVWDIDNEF
Experimental: 1 (A) Synthetic scheme for^68 Ga-NOTA-TR01; (B) ESI-MS analysis of TR01; (C) Binding response (nm) between human TfR1 and varying concentrations (62.5–1,000 nM) of TR01; (D, E) Stability assessment of ^68 Ga-NOTA-TR01 in PBS and serum at 37 °C, measured by radio-HPLC.
SPR was employed to quantify the binding interaction between TR01 and TfR1.
The binding affinity of NOTA-TR01 to human TfR1 was evaluated by surface plasmon resonance (SPR) using a Biacore 8K system (Cytiva, USA) at Nanjing Genscript Probio. Recombinant human TfR1-Fc protein (TFR-H5264, Acro Biosystems) was immobilized on the sensor chip for kinetic analysis. The assay was performed under acidic conditions (pH 2.0) using a running buffer containing […]. Real-time binding data were collected at a 1:1 ligand-to-analyte ratio. The equilibrium dissociation constant (KD) was calculated by globally fitting the association and dissociation curves.

| Compound | cellular binding (LOVO cells (TfR1 low); 30 min) | cellular binding (LOVO cells (TfR1 low); 60 min) | cellular binding (LOVO cells (TfR1 low); 120 min) | tissue to tissue ratio at 2 h (in vivo) | radiochemical integrity after incubation in PBS [1] | cellular binding (HT29 cells (TfR1 high); 30 min) | cellular binding (HT29 cells (TfR1 high); 60 min) | cellular binding (HT29 cells (TfR1 high); 120 min) | cellular binding, blocking group (HT29 cells (TfR1 high); HT29, preincubation with 1,000-fold molar excess of unlabeled TR01, 30 min) | cellular binding, blocking group (HT29 cells (TfR1 high); HT29, preincubation with 1,000-fold molar excess of unlabeled TR01, 60 min) | cellular binding, blocking group (HT29 cells (TfR1 high); HT29, preincubation with 1,000-fold molar excess of unlabeled TR01, 120 min) | inhibition of cell binding by cold peptide (HT29 cells (TfR1 high); HT29 cells, cold peptide) | logD (physchem) | kon (human TfR1) |
| --- | --- | --- | --- | --- | --- | --- | --- | --- | --- | --- | --- | --- | --- | --- |
| CC[C@H](C)[C@@H]1NC(=O)[C@H](Cc2ccc(O)cc2)NC(=O)[C@H](Cc2ccc(O)cc2)NC(=O)[C@H](CC(N)=O)NC(=O)[C@H](Cc2c[nH]c3ccccc23)NC(=O)[C@H](C(C)C)NC(=O)[C@H](Cc2ccccc2)NC(=O)[C@H](C(C)C)NC(=O)[C@H](C)NC(=O)CSC[C@@H](C(=O)NCCOCCOCCOCCOCCOCCOCCOCCOCCOCCOCCOCCOCCC(=O)N[C@@H](CCCCNC(=O)CN2CCN(CC(=O)O)CCN(CC(=O)O)CC2)C(=O)O)NC(=O)[C@H](Cc2ccc(O)cc2)N(C)C(=O)[C@H](Cc2ccc(O)cc2)NC(=O)[C@H](CCCNC(=N)N)NC(=O)[C@H](CCCNC(=N)N)NC(=O)[C@H]([C@@H](C)CC)NC1=O [^68Ga-NOTA-TR01, metal not drawn] | 2.63 ± 0.09 %AD/5 × 10^5 cells | 3.19 ± 0.23 %AD/5 × 10^5 cells | 4.51 ± 0.22 %AD/5 × 10^5 cells | > 7 | > 98% | 5.44 ± 0.12 %AD/5 × 10^5 cells | 6.36 ± 0.05 %AD/5 × 10^5 cells | 9.56 ± 0.17 %AD/5 × 10^5 cells | 1.58 ± 0.06% | 1.34 ± 0.29% | 1.27 ± 0.09% | over 85% | -1.71 ± 0.121 | – |
| CC[C@H](C)[C@@H]1NC(=O)[C@H](Cc2ccc(O)cc2)NC(=O)[C@H](Cc2ccc(O)cc2)NC(=O)[C@H](CC(N)=O)NC(=O)[C@H](Cc2c[nH]c3ccccc23)NC(=O)[C@H](C(C)C)NC(=O)[C@H](Cc2ccccc2)NC(=O)[C@H](C(C)C)NC(=O)[C@H](C)NC(=O)CSC[C@@H](C(=O)NCCOCCOCCOCCOCCOCCOCCOCCOCCOCCOCCOCCOCCC(=O)N[C@@H](CCCCNC(=O)CN2CCN(CC(=O)O)CCN(CC(=O)O)CC2)C(=O)O)NC(=O)[C@H](Cc2ccc(O)cc2)N(C)C(=O)[C@H](Cc2ccc(O)cc2)NC(=O)[C@H](CCCNC(=N)N)NC(=O)[C@H](CCCNC(=N)N)NC(=O)[C@H]([C@@H](C)CC)NC1=O [NOTA-TR01, cyclo(Ac-Ala-Val-Phe-Val-Trp-Asn-Tyr-Tyr-Ile-Ile-Arg-Arg-Tyr-NMe-Tyr-Cys)-PEG12-Lys-NOTA] | – | – | – | – | – | – | – | – | – | – | – | – | – | 77300 M⁻¹ s⁻¹ |
